biological target: T1, EZH2 within the PRC2 complex (Homo sapiens, UniProt Q15910); experiment: EZH2 methyltransferase scintillation proximity assay (SPA); assay type: biochemical; details: methyltransferase activity of EZH2 in human PRC2 complex, 3H-SAM, HeLa mononucleosomes
T1 construct: FLAG; made in house; host or cells: Sf9 cells
Description: Compounds contained herein were evaluated for their ability to inhibit the methyltransferase activity of EZH2 within the PRC2 complex. Human PRC2 complex was prepared by co-expressing each of the 5 member proteins (FLAG-EZH2, EED, SUZ12, RbAp48, AEBP2) in Sf9 cells followed by co-purification. Enzyme activity was measured in a scintillation proximity assay (SPA) where a tritiated methyl group is transferred from 3H-SAM to a lysine residue on Histone H3 of a mononucleosome, purified from HeLa cells. Mononucleosomes were captured on SPA beads and the resulting signal is read on a ViewLux plate reader.
Part A. Compound Preparation
• 1. Prepare 10 mM stock of compounds from solid in 100% DMSO. • 2. Set up an 11-point serial dilution (1:3 dilution, top concentration 10 mM) in 100% DMSO for each test compound in a 384 well plate leaving columns 6 and 18 for DMSO controls. • 3. Dispense 100 nL of compound from the dilution plate into reaction plates (Grenier Bio-One, 384-well, Cat#784075). Part B. Reagent Preparation Prepare the following solutions: • 1. 50 mM Tris-HCl, pH 8: Per 1 L of base buffer, combine 1 M Tris-HCl, pH 8 (50 mL) and distilled water (950 mL). • 2. 1× Assay Buffer: Per 10 mL of 1× Assay Buffer, combine 50 mM Tris-HCl, pH 8 (9958 uL), 1 M MgCl2 (20 uL), 2 M DTT (20 uL), and 10% Tween-20 (2 uL) to provide a final concentration of 50 mM Tris-HCl, pH 8, 2 mM MgCl2, 4 mM DTT, 0.002% Tween-20. • 3. 2× Enzyme Solution: Per 10 mL of 2× Enzyme Solution, combine 1× Assay Buffer and PRC2 complex to provide a final enzyme concentration of 10 nM. • 4. SPA Bead Suspension: Per 1 mL of SPA Bead Suspension, combine PS-PEI coated LEADSeeker beads (40 mg) and ddH2O (1 mL) to provide a final concentration of 40 mg/mL. • 5. 2× Substrate Solution: Per 10 mL of 2× Substrate Solution, combine 1× Assay Buffer (9728.55 uL), 800 ug/mL mononucleosomes (125 uL), 1 mM cold SAM (4 uL), and 7.02 uM 3H-SAM (142.45 uL; 0.55 mCi/mL) to provide a final concentration of 5 ug/mL nucleosomes, 0.2 uM cold SAM, and 0.05 uM 3H-SAM. • 6. 2.67× Quench/Bead Mixture: Per 10 mL of 2.67× Quench/Bead Mixture, combine ddH2O (9358 uL), 10 mM cold SAM (267 uL), 40 mg/mL Bead Suspension (375 uL) to provide a final concentration of 100 uM cold SAM and 0.5 mg/mL SPA beads. Part C. Assay Reaction in 384-well Grenier Bio-One Plates Compound Addition • 1. Dispense […] of 100× Compound to test wells (as noted above). • 2. Dispense […] of 100% DMSO to columns 6 & 18 for high and low controls, respectively. Assay • 1. Dispense 5 uL/well of 1× Assay Buffer to column 18 (low control reactions). • 2. Dispense 5 uL/well of 2× Enzyme Solution to columns 1-17, 19-24. • 3. Spin assay plates for ˜1 minute at 500 rpm. • 4. Stack the assay plates, covering the top plate. • 5. Incubate the compound/DMSO with the enzyme for 30 minutes at room temperature. • 6. Dispense 5 uL/well of 2× Substrate Solution to columns 1-24. • 7. Spin assay plates for ˜1 minute at 500 rpm. • 8. Stack the assay plates, covering the top plate. • 9. Incubate the assay plates at room temperature for 1 hour. Quench/Bead Addition • 1. Dispense 5 uL/well of the 3× Quench/Bead Mixture to columns 1-24. • 2. Seal the top of each assay plate with adhesive TopSeal. • 3. Spin assay plates for ˜1 minute at 500 rpm. • 4. Equilibrate the plates for >20 min. Read Plates • 1. Read the assay plates on the Viewlux Plate Reader utilizing the 613 nm emission filter with a 300 s read time. Reagent addition can be done manually or with automated liquid handler. *The final DMSO concentration in this assay is 1%. *The positive control is in column 6; negative control is in column 18. *Final starting concentration of compounds is 100 μM. Part D. Data Analysis
Percent inhibition was calculated relative to the DMSO control for each compound concentration and the resulting values were fit using standard IC50 fitting parameters within the ABASE data fitting software package.

T1 sequence (Q15910 whole entry): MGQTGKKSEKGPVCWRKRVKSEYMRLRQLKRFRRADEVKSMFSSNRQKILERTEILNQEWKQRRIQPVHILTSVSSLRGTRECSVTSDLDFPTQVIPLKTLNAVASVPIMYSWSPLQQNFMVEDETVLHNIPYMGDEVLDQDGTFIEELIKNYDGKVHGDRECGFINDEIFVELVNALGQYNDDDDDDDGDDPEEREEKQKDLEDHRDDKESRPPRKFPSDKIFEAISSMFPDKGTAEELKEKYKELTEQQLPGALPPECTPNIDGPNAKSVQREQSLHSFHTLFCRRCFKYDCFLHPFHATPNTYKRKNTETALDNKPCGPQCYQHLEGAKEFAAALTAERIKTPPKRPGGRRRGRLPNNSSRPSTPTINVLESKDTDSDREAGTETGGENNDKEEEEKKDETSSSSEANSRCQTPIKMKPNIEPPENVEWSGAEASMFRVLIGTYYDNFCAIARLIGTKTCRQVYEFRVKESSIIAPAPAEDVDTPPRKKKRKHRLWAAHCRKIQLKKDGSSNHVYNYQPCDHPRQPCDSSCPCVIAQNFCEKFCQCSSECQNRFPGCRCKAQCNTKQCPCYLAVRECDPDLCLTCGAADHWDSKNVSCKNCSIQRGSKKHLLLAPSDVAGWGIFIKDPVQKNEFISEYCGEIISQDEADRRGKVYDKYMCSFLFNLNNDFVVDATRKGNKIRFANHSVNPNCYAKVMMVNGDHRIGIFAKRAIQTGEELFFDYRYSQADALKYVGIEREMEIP
T1 sequence (O75530 whole entry partner): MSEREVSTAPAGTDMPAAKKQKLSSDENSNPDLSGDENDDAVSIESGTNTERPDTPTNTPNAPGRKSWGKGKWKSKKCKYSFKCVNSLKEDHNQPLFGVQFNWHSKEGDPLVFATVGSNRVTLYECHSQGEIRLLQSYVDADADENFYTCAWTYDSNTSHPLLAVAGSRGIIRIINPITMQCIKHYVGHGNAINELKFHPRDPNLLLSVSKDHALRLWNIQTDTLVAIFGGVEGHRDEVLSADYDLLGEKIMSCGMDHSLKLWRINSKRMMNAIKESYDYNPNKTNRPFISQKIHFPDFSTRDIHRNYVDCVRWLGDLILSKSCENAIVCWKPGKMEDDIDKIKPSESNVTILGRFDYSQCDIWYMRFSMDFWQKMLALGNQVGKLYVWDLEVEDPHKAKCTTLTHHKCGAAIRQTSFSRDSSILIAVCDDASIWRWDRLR
T1 sequence (Q15022 whole entry partner): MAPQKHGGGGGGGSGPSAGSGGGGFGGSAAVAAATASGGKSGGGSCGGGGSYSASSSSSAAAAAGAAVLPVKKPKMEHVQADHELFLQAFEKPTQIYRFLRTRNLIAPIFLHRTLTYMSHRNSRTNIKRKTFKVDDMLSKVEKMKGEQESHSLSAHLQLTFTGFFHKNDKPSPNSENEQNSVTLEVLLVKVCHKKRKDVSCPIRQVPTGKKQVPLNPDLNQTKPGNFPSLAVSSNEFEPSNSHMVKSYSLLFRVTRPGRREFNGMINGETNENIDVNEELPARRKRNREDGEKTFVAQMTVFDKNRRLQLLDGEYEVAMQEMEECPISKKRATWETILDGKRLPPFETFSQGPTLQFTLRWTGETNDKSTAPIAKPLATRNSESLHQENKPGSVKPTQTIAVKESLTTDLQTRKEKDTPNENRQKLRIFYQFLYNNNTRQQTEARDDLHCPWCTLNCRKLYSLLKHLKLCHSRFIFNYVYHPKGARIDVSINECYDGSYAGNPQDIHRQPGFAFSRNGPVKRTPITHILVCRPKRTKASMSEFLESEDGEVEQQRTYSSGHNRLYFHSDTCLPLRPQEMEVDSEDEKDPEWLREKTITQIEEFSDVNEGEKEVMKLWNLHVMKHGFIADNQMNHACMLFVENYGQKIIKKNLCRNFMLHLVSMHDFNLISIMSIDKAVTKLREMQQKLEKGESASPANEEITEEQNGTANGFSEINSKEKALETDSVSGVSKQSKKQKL
T1 sequence (Q09028 whole entry partner): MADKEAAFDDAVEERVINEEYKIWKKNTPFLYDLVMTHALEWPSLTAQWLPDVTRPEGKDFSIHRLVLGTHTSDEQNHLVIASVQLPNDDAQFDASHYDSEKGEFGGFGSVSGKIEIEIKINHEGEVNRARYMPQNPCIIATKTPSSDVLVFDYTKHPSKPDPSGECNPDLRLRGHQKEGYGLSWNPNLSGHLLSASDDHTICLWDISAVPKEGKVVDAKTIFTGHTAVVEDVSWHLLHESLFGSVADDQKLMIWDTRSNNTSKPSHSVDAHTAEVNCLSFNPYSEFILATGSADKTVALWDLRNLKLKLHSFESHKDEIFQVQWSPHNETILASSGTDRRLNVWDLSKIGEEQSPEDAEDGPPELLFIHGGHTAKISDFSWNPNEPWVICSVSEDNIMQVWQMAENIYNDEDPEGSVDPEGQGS
T1 sequence (Q6ZN18 whole entry partner): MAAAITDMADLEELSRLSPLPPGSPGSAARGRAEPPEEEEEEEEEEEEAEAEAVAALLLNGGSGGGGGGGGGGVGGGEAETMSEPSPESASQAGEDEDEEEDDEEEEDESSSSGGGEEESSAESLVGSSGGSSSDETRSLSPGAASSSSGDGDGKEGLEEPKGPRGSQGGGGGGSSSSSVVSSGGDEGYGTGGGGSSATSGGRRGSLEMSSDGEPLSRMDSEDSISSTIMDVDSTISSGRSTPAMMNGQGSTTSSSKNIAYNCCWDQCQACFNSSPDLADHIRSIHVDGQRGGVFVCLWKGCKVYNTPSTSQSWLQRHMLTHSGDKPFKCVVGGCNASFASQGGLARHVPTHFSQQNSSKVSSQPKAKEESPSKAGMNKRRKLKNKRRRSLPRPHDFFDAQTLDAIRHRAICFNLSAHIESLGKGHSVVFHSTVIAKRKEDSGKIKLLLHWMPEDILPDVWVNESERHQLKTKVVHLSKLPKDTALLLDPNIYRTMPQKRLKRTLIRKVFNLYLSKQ

Molecule	IC50 [nM]
1-isopropyl-N-((6-methyl-2-oxo-4-propyl-1,2-dihydropyridin-3-yl)methyl)-6-(thiophen-3-yl)-1H-indazole-4-carboxamide [Example 32]	25
CCCc1cc(C)[nH]c(=O)c1CNC(=O)c1cc(Cl)cc2c1cnn2C(C)C [Example 1, 6-chloro-1-(1-methylethyl)-N-[(6-methyl-2-oxo-4-propyl-1,2-dihydro-3-pyridinyl)methyl]-1H-indazole-4-carboxamide]	32
Cc1cc(C)c(CNC(=O)c2cc(Br)cc3c2cnn3C(C)C)c(=O)[nH]1 [Example 3, 6-Bromo-N-[(4,6-dimethyl-2-oxo-1,2-dihydro-3-pyridinyl)methyl]-1-(1-methylethyl)-1H-indazole-4-carboxamide]	158
CCc1cc(C)[nH]c(=O)c1CNC(=O)c1cc(Br)cc2c1cnn2C(C)C [Example 4, 6-bromo-N-((4-ethyl-6-methyl-2-oxo-1,2-dihydropyridin-3-yl)methyl)-1-isopropyl-1H-indazole-4-carboxamide]	25
Cc1cc(Cc2ccccc2)c(CNC(=O)c2cc(Br)cc3c2cnn3C(C)C)c(=O)[nH]1 [Example 5, 6-bromo-1-(1-methylethyl)-N-{[6-methyl-2-oxo-4-(phenylmethyl)-1,2-dihydro-3-pyridinyl]methyl}-1H-indazole-4-carboxamide]	8
Cc1cc(Cc2ccccc2)c(CNC(=O)c2cccc3c2cnn3C(C)C)c(=O)[nH]1 [Example 7, 1-(1-methylethyl)-N-{[6-methyl-2-oxo-4-(phenylmethyl)-1,2-dihydro-3-pyridinyl]methyl}-1H-indazole-4-carboxamide]	40
Cc1cc(C)c(CNC(=O)c2cc(-c3ccc(OCCN(C)C)cc3)cc3c2cnn3C(C)C)c(=O)[nH]1 [Example 8, N-((4,6-dimethyl-2-oxo-1,2-dihydropyridin-3-yl)methyl)-6-(4-(2-(dimethylamino)ethoxy)phenyl)-1-isopropyl-1H-indazole-4-carboxamide]	10
Cc1cc(C)c(CNC(=O)c2cc(-c3ccc(N4CCNCC4)cc3)cc3c2cnn3C(C)C)c(=O)[nH]1 [Example 9, N-[(4,6-dimethyl-2-oxo-1,2-dihydro-3-pyridinyl)methyl]-1-(1-methylethyl)-6-[4-(1-piperazinyl)phenyl]-1H-indazole-4-carboxamide]	16
Cc1cc(C)c(CNC(=O)c2cc(-c3ccc(N4CCNCC4)nc3)cc3c2cnn3C(C)C)c(=O)[nH]1 [Example 10, N-[(4,6-dimethyl-2-oxo-1,2-dihydro-3-pyridinyl)methyl]-1-(1-methylethyl)-6-[6-(1-piperazinyl)-3-pyridinyl]-1H-indazole-4-carboxamide]	13
Cc1cc(C(C)C)c(CNC(=O)c2cc(-c3ccc(N4CCNCC4)nc3)cc3c2cnn3C(C)C)c(=O)[nH]1 [Example 12, 1-isopropyl-N-((4-isopropyl-6-methyl-2-oxo-1,2-dihydropyridin-3-yl)methyl)-6-(6-(piperazin-1-yl)pyridin-3-yl)-1H-indazole-4-carboxamide]	4
Cc1cc(C)c(CNC(=O)c2cc(-c3cnn(C)c3)cc3c2cnn3C(C)C)c(=O)[nH]1 [Example 13, N-((4,6-dimethyl-2-oxo-1,2-dihydropyridin-3-yl)methyl)-1-isopropyl-6-(1-methyl-1H-pyrazol-4-yl)-1H-indazole-4-carboxamide]	126
CCc1cc(C)[nH]c(=O)c1CNC(=O)c1cc(-c2ccc(CN(C)C)cc2)cc2c1cnn2C(C)C [Example 14, 6-(4-((dimethylamino)methyl)phenyl)-N-((4-ethyl-6-methyl-2-oxo-1,2-dihydropyridin-3-yl)methyl)-1-isopropyl-1H-indazole-4-carboxamide]	5
CCCc1cc(C)[nH]c(=O)c1CNC(=O)c1cc(-c2ccc(N3CCNCC3)nc2)cc2c1cnn2C(C)C [Example 15, 1-(1-methylethyl)-N-[(6-methyl-2-oxo-4-propyl-1,2-dihydro-3-pyridinyl)methyl]-6-[6-(1-piperazinyl)-3-pyridinyl]-1H-indazole-4-carboxamide]	2
CCc1cc(C)[nH]c(=O)c1CNC(=O)c1cc(-c2ccc(N3CCN(C)CC3)nc2)cc2c1cnn2C(C)C [Example 16, N-((4-ethyl-6-methyl-2-oxo-1,2-dihydropyridin-3-yl)methyl)-1-isopropyl-6-(6-(4-methylpiperazin-1-yl)pyridin-3-yl)-1H-indazole-4-carboxamide]	3
CCCc1cc(C)[nH]c(=O)c1CNC(=O)c1cc(-c2cnc(C)nc2)cc2c1cnn2C(C)C [Example 17, 1-isopropyl-N-((6-methyl-2-oxo-4-propyl-1,2-dihydropyridin-3-yl)methyl)-6-(2-methylpyrimidin-5-yl)-1H-indazole-4-carboxamide]	8
CCCc1cc(C)[nH]c(=O)c1CNC(=O)c1cc(-c2ccc(N(C)C)nc2)cc2c1cnn2C(C)C [Example 18, 6-[6-(dimethylamino)-3-pyridinyl]-1-(1-methylethyl)-N-[(6-methyl-2-oxo-4-propyl-1,2-dihydro-3-pyridinyl)methyl]-1H-indazole-4-carboxamide]	10
CCCc1cc(C)[nH]c(=O)c1CNC(=O)c1cc(-c2ccc(N3CCOCC3)nc2)cc2c1cnn2C(C)C [Example 19, 1-(1-methylethyl)-N-[(6-methyl-2-oxo-4-propyl-1,2-dihydro-3-pyridinyl)methyl]-6-[6-(4-morpholinyl)-3-pyridinyl]-1H-indazole-4-carboxamide]	6
CCCc1cc(C)[nH]c(=O)c1CNC(=O)c1cc(-c2cnc(N)nc2)cc2c1cnn2C(C)C [Example 20, 6-(2-amino-5-pyrimidinyl)-1-(1-methylethyl)-N-[(6-methyl-2-oxo-4-propyl-1,2-dihydro-3-pyridinyl)methyl]-1H-indazole-4-carboxamide]	10
CCCc1cc(C)[nH]c(=O)c1CNC(=O)c1cc(-c2ccc(N)nc2)cc2c1cnn2C(C)C [Example 21, 6-(6-amino-3-pyridinyl)-1-(1-methylethyl)-N-[(6-methyl-2-oxo-4-propyl-1,2-dihydro-3-pyridinyl)methyl]-1H-indazole-4-carboxamide]	5
CCCc1cc(C)[nH]c(=O)c1CNC(=O)c1cc(-c2cncnc2)cc2c1cnn2C(C)C [Example 22, 1-(1-methylethyl)-N-[(6-methyl-2-oxo-4-propyl-1,2-dihydro-3-pyridinyl)methyl]-6-(5-pyrimidinyl)-1H-indazole-4-carboxamide]	20
CCCc1cc(C)[nH]c(=O)c1CNC(=O)c1cc(-c2ccc(OC)nc2)cc2c1cnn2C(C)C [Example 23, 1-(1-methylethyl)-N-[(6-methyl-2-oxo-4-propyl-1,2-dihydro-3-pyridinyl)methyl]-6-[6-(methyloxy)-3-pyridinyl]-1H-indazole-4-carboxamide]	8

Reference: US8846935B2, “Indazoles” (GlaxoSmithKline LLC, priority 2010, dated 2014)
